Experiment [1] concerns the target T1, Human vitronectin receptor (αv β3) (Homo sapiens, UniProt P05106+P06756).
T1 construct: Human vitronectin receptor(αv β3) was purified from human placenta; from tissue; host or cells: human placenta
The experiment is described as follows: Vitronectin adhesion assay (solid phase receptor assay, biotinylated vitronectin competition). The class given is binding. Here is the method:
VITRONECTIN ADHESION ASSAY Human vitronectin receptor(αv β3) was purified from human placenta as previously described [Pytela et al., Methods in Enzymology, 144:475-489 (1987)). Human vitronectin was purified from fresh frozen plasma as previously described [Yatohgo et al., Cell Structure and Function, 13:281-292 (1988)]. Biotinylated human vitronectin was prepared by coupling NHS-biotin from Pierce Chemical Company (Rockford, Ill.) to purified vitronectin as previously described [Charo et al., J. Biol. Chem., 266(3):1415-1421 (1991)]. Assay buffer, OPD substrate tablets, and RIA grade BSA were obtained from Sigma (St. Louis, Mo.). Anti-biotin antibody was obtained from Calbiochem (La Jolla, Calif.). Linbro microtiter plates were obtained from Flow Labs (McLean, Va.). ADP reagent was obtained from Sigma (St. Louis, Mo.). Solid Phase Receptor Assays This assay was essentially the same as previously reported [Niiya et al., Blood, 70:475-483 (1987)]. The purified human vitronectin receptor (αv β3) was diluted from stock solutions to 1.0 μg/mL in Tris-buffered saline containing 1.0 mM Ca^++, Mg^++, and Mn^++, pH 7.4 (TBS^+++). The diluted receptor was immediately transferred to Linbro microtiter plates at 100 μL/well (100 ng receptor/well). The plates were sealed and incubated overnight at 4° C. to allow the receptor to bind to the wells. All remaining steps were at room temperature. The assay plates were emptied and 200 μL of 1% RIA grade BSA in TBS^+++ (TBS^+++ /BSA) were added to block exposed plastic surfaces. Following a 2 hour incubation, the assay plates were washed with TBS^+++ using a 96 well plate washer. Logarithmic serial dilution of the test compound and controls were made starting at a stock concentration of 2 mM and using 2 nM biotinylated vitronectin in TBS^+++ /BSA as the diluent. This premixing of labeled ligand with test (or control) ligand, and subsequent transfer of 50 μL aliquots to the assay plate was carried out with a CETUS Propette robot; the final concentration of the labeled ligand was 1 nM and the highest concentration of test compound was 1.0×10^-4 M. The competition occurred for two hours after which all wells were washed with a plate washer as before. Affinity purified horseradish peroxidase labeled goat antibiotin antibody was diluted 1:3000 in TBS^+++ /BSA and 125 μL were added to each well. After 30 minutes, the plates were washed and incubated with OPD/H2 O2 substrate in 100 mM/L Citrate buffer, pH 5.0. The plate was read with a microtiter plate reader at a wavelength of 450 nm and when the maximum-binding control wells reached an absorbance of about 1.0, the final A450 were recorded for analysis. The data were analyzed using a macro written for use with the EXCEL™ spreadsheet program. The mean, standard deviation, and %CV were determined for duplicate concentrations. The mean A450 values were normalized to the mean of four maximum-binding controls (no competitor added)(B-MAX). The normalized values were subjected to a four parameter curve fit algorithm [Rodbard et al., Int.

Experiment [2] addresses T2, Human fibrinogen receptor (αIIb β3) (Homo sapiens, UniProt P05106+P08514).
T2 construct: Human fibrinogen receptor (αIIb β3) was purified from outdated platelets; from tissue; host or cells: outdated human platelets
The experiment is described as follows: Purified IIb/IIIa receptor assay (solid phase receptor assay, biotinylated vitronectin competition). The following applies: inhibition of 50% of the maximum binding of biotinylated vitronectin; 1 nM labeled ligand, 2 hours, room temperature, highest concentration of test compound 1.0×10^-4 M. The text has this: PURIFIED IIb/IIIa RECEPTOR ASSAY Human fibrinogen receptor (αIIb β3) was purified from outdated platelets. (Pytela, R., Pierschbacher, […]., Suzuki, S., and […] acid adhesion receptors", Methods in Enzymology 144(1987):475-489.) Human vitronectin was purified from fresh frozen plasma as described in Yatohgo, T., Izumi, M., Kashiwagi, H., and Hayashi, M., "Novel purification of vitronectin from human plasma by heparin affinity chromatography," Cell Structure and Function 13(1988):281-292. Biotinylated human vitronectin was prepared by coupling NHS-biotin from Pierce Chemical Company (Rockford, Ill.) to purified vitronectin as previously described. (Charo, […]., Phillips, D. R., Hsu, M. A., Scarborough, R. M., "Inhibition of fibrinogen binding to GP IIb/IIIa by a GP IIIa peptide", J. Biol. Chem. 266(3)(1991):1415-1421.) Assay buffer, OPD substrate tablets, and RIA grade BSA were obtained from Sigma (St. Louis, Mo.). Anti-biotin antibody was obtained from Calbiochem (La Jolla, Calif.). Linbro microtiter plates were obtained from Flow Labs (McLean, Va.). ADP reagent was obtained from Sigma (St. Louis, Mo.). Solid Phase Receptor Assays This assay is essentially the same reported in […]., Bader, R., Byers-Ward, […]., Plow, E. F. and Ruggeri, Z. M., "Increased surface expression of the membrane glycoprotein IIb/IIIa complex induced by platelet activation: Relationships to the binding of fibrinogen and platelet aggregation", Blood 70(1987):475-483. The purified human fibrinogen receptor (αIIb β3) was diluted from stock solutions to 1.0 μg/mL in Tris-buffered saline containing 1.0 mM Ca^++, Mg^++, and Mn^++, pH 7.4 (TBS^+++). The diluted receptor was immediately transferred to Linbro microtiter plates at 100 μL/well (100 ng receptor/well). The plates were sealed and incubated overnight at 4° C. to allow the receptor to bind to the wells. All remaining steps were at room temperature. The assay plates were emptied and 200 μL of 1% RIA grade BSA in TBS^+++ (TBS^+++ /BSA) were added to block exposed plastic surfaces. Following a 2 hour incubation, the assay plates were washed with TBS^+++ using a 96 well plate washer. Logarithmic serial dilution of the test compound and controls were made starting at a stock concentration of 2 mM and using 2 nM biotinylated vitronectin in TBS^+++ /BSA as the diluent. This premixing of labeled ligand with test (or control) ligand, and subsequent transfer of 50 μL aliquots to the assay plate was carried out with a CETUS Propette robot; the final concentration of the labeled ligand was 1 nM and the highest concentration of test compound was 1.0×10^-4 M. The competition occurred for two hours after which all wells were washed with a plate washer as before. Affinity purified horseradish peroxidase labeled goat antibiotin antibody was diluted 1:3000 in TBS^+++ /BSA and 125 μL were added to each well. After 30 minutes, the plates were washed and incubated with […]/H2 O2 substrate in 100 mM/L citrate buffer, pH 5.0. The plate was read with a microtiter plate reader at a wavelength of 450 nm and when the maximum-binding control wells reached an absorbance of about 1.0, the final A450 were recorded for analysis. The data were analyzed using a macro written for use with the EXCELTM spreadsheet program. The mean, standard deviation, and %CV were determined for duplicate concentrations. The mean A450 values were normalized to the mean of four maximum-binding controls (no competitor added)(B-MAX). The normalized values were subjected to a four parameter curve fit algorithm, [Robard et al., Int.

[3] abbreviates: inhibition of 50% of the maximum binding of biotinylated vitronectin, 1 nM labeled ligand, 2 hours, room temperature, highest concentration of test compound 1.0×10^-4 M, read-out: AvB3 IC50.

Counter-ions that a name gives are not always drawn. Like-named read-outs stand apart in the source and are kept apart here.

In the case of “3-[[[[3-[(aminothioxomethyl)amino]phenyl]carbonyl]amino]methyl]benzenepropanoic acid [Example 25]”, the IC50 is 7460 nM in experiment [1] (setting [3]) and 26900 nM in experiment [2]. Consider `CCC(CC(=O)O)c1cccc(CNC(=O)c2ccc(Cl)c(NC(=N)N)c2)c1` (racemic) [Example 58, (±) 3-[[[[3-[(aminoiminomethyl)amino]-4-chlorophenyl]carbonyl]amino]methyl]-β-ethylbenzenepropanoic acid, trifluoroacetate salt], for which the concentration for half-maximal inhibition (IC50) worked out at 11.6 nM in experiment [1] (setting [3]) and 5180 nM in experiment [2]. For `CCC(CC(=O)O)c1cccc(CNC(=O)c2cc(NC(=N)N)cc(C(F)(F)F)c2)c1` (racemic) [Example 59, (±) 3-[[[[3-[(aminoiminomethyl)amino]-5(trifluoromethyl)phenyl]carbonyl]amino]methyl]-β-ethylbenzenepropanoic acid, trifluoroacetate salt], in that order: 3.88 nM and 3130 nM. On to `N=C(N)Nc1cccc(C(=O)NCc2cccc(C(CC(=O)O)c3cc(F)cc(F)c3)c2)c1` (racemic) [Example 60, (±) β-[3-[[[[3-[(aminoiminomethyl)amino]phenyl]carbonyl]amino]methyl]phenyl]-3,5-difluorobenzenepropanoic acid, trifluoroacetate salt], for which the 50% inhibitory concentration (IC50) in experiment [1] (setting [3]) is 4.58 nM; in experiment [2], 286 nM.

As for `N=C(N)Nc1cc(C(=O)NCc2cccc(C(CC(=O)O)c3cc(F)cc(F)c3)c2)cc(C(F)(F)F)c1` (racemic) [Example 61, (±) β-[3-[[[[3-[(aminoiminomethyl)amino]-5-(trifluoromethyl)phenyl]carbonyl]amino]methyl]phenyl]-3,5-difluorobenzenepropanoic acid, trifluoroacetate salt hydrate], the IC50 in experiment [1] (setting [3]) is 1.33 nM; in experiment [2], 712 nM.

`O=C(O)CC(c1cc(F)cc(F)c1)c1cccc(CNC(=O)c2cccc(NC3=NCCCN3)c2)c1` (racemic) [Example 62, (±) 3,5-difluoro-β-[3-[[[[3-[(1,4,5,6-tetrahydropyrimidin-2-yl)amino]phenyl]carbonyl]amino]methyl]phenyl]benzenepropanoic acid, trifluoroacetate salt monohydrate]: the IC50 was found to be 0.87 nM in experiment [1] (setting [3]) and 1900 nM in experiment [2]. Regarding `COc1ccccc1C(CC(=O)O)c1cccc(CNC(=O)c2cccc(NC(=N)N)c2)c1` (racemic) [Example 63, (±) -[3-[[[[3-[(aminoiminomethyl)amino]phenyl]carbonyl]amino]methyl]phenyl]-2-methoxybenzene propanoic acid, trifluoroacetate salt hydrate], the values for the IC50 in experiment [1] (setting [3]) and in experiment [2] were 23.5 nM and 454 nM, respectively. The matching figures for `CC(CC(=O)O)c1cccc(CNC(=O)c2cccc(NC(N)=NC#N)c2)c1` (racemic) [Example 64, (±) 3[[[[3-[[amino(cyanoimino)methyl]amino]phenyl]carbonyl]amino]methyl]-β-methylbenzenepropanoic acid]: 199 nM and 26400 nM. Regarding `CC(CC(=O)O)c1cccc(CNC(=O)c2cccc(NC(N)=NC(N)=O)c2)c1` (racemic) [Example 65, (±) 3[[[[3-[[amino[(aminocarbonyl)imino]methyl]amino]phenyl]carbonyl]amino]methyl]-β-methylbenzenepropanoic acid, trifluoroacetate salt], the values for the IC50 in experiment [1] (setting [3]) and in experiment [2] were 23 nM and 4010 nM, respectively. The matching figures for `CC(CC(=O)O)c1cccc(CNC(=O)c2cccc(NC3=NC(=O)CN3)c2)c1` (racemic) [Example 67, (±) 3-[[[[3-[(4,5-dihydro-4-oxo-1H-imidazol-2-yl)amino]phenyl]carbonyl]amino]methyl]-β-methylbenzenepropanoic acid]: 122 nM and 12900 nM.

On to `CC(CC(=O)O)c1cccc(CNC(=O)c2cccc(Nc3nc4ccccc4[nH]3)c2)c1` (racemic) [Example 69, (±) 3-[[[[3-[(1H-benzimidazol-2-yl)amino]phenyl]carbonyl]amino]methyl]-β-methyl benzenepropanoic acid], for which the IC50 in experiment [1] (setting [3]) is 425 nM; in experiment [2], 10100 nM.

On to `COc1ccc2[nH]c(Nc3cccc(C(=O)NCc4cccc(C(C)CC(=O)O)c4)c3)nc2c1` (racemic) [Example 70, (±) 3-[[[[3-[(5-methoxy-1H-benzimidazol-2-yl)amino]phenyl]carbonyl]amino]methyl]-β-methyl benzenepropanoic acid, trifluoroacetate salt], for which the IC50 in experiment [1] (setting [3]) was 1710 nM; in experiment [2], 7660 nM. For `N=C(N)Nc1cccc(S(=O)(=O)Nc2cccc(C(CC(=O)O)c3ccccc3)c2)c1` (stereo not drawn) [Example 1, 3-[[[3-[(aminoiminomethyl)amino]phenyl]sulfonyl]amino]-β-phenylbenzenepropanoic acid, trifluoroacetate salt], in that order: 16.7 nM and 625 nM.

For the compound `N=C(N)NCCCCC(=O)NCC(=O)NC(CC(=O)O)c1cccnc1` (stereo not drawn) [β-[[2-[[5-[(aminoiminomethyl)amino]-1-oxopentyl]amino]-1-oxoethyl]amino]-3-pyridinepropanoic acid], the IC50 in experiment [1] (positive control included on each plate, range given in text, read-out: αv β3 antagonist IC50 (positive control)) lay in the range of 3 to 10 nM.

The values are drawn from patent US5773646A, “Meta-substituted phenylene derivatives” (G. D. Searle & Co., priority 1997, dated 1998).
